Measured values as given in ChEMBL document CHEMBL1201862, “PubChem BioAssay data set” (2004).
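A five-concentration, 48-hour dose response in 96-well plates underlies each endpoint, interpolated linearly between surrounding concentrations. The concentration for 50% growth inhibition is given as GI50.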 Active and inactive are the calls of the source. No stated cut-off is given here; in the data, active = GI50 up to about 1.1 µM and inactive = higher.

Tests used:
Experiment in all cases: NCI tumour cell line growth inhibition, 48 h
COLO 205 = test system: COLO 205
BT-549 = test system: BT-549
CAKI-1 = test system: CAKI-1
NCI-H522 = test system: NCI-H522
A498 = test system: A498
HOP-62 = test system: HOP-62
MCF7 = test system: MCF7
SN12C = test system: SN12C
SF-268 = test system: SF-268
786-0 = test system: 786-0
UACC-257 = test system: UACC-257
HCC 2998 = test system: HCC 2998
SNB-19 = test system: SNB-19
OVCAR-4 = test system: OVCAR-4
SNB-75 = test system: SNB-75
PC-3 = test system: PC-3
RPMI-8226 = test system: RPMI-8226
CCRF-CEM = test system: CCRF-CEM
LOX IMVI = test system: LOX IMVI
EKVX = test system: EKVX

Row | SMILES | GI50 (COLO 205) | GI50 (BT-549) | GI50 (CAKI-1) | GI50 (NCI-H522) | GI50 (A498) | GI50 (HOP-62) | GI50 (MCF7) | GI50 (SN12C) | GI50 (SF-268) | GI50 (786-0) | GI50 (UACC-257) | GI50 (HCC 2998) | GI50 (SNB-19) | GI50 (OVCAR-4) | GI50 (SNB-75) | GI50 (PC-3) | GI50 (RPMI-8226) | GI50 (CCRF-CEM) | GI50 (LOX IMVI) | GI50 (EKVX)
1 | CCCCCCCCCCCCn1c(=O)cc(NCCCC)c2cc3c(NCCCC)cc(=O)n(CCCCCCCCCCCC)c3nc21 | > 100 µM (inactive) | > 100 µM (inactive) | > 100 µM (inactive) | > 100 µM (inactive) | > 100 µM (inactive) | 53.8 µM (inactive) | > 100 µM (inactive) | > 100 µM (inactive) | 99.1 µM (inactive) | > 100 µM (inactive) | > 100 µM (inactive) | > 100 µM (inactive) | > 100 µM (inactive) | > 100 µM (inactive) | > 100 µM (inactive) | > 100 µM (inactive) | > 100 µM (inactive) | – | – | –
2 | CC(C)[Si](OCC/C=C/C1CCC(=O)C1C(O)C1CCCCC1)(C(C)C)C(C)C (stereo unspecified) | 16.3 µM (inactive) | 18.9 µM (inactive) | 14.7 µM (inactive) | 12 µM (inactive) | 18.3 µM (inactive) | 16.9 µM (inactive) | 15.9 µM (inactive) | 18.2 µM (inactive) | 7.13 µM (inactive) | 15.9 µM (inactive) | 15.4 µM (inactive) | 8.99 µM (inactive) | 17.7 µM (inactive) | 20.1 µM (inactive) | 15.2 µM (inactive) | 13.3 µM (inactive) | 13.7 µM (inactive) | 19.5 µM (inactive) | 17.1 µM (inactive) | 15.5 µM (inactive)
3 | O=C(/C=C/c1ccc([N+](=O)[O-])cc1)N1CCN(CCOC(c2ccc(F)cc2)c2ccc(F)cc2)CC1 | 11.5 µM (inactive) | > 100 µM (inactive) | 18.2 µM (inactive) | 63.5 µM (inactive) | 16 µM (inactive) | > 100 µM (inactive) | 5.19 µM (inactive) | 4.04 µM (inactive) | > 100 µM (inactive) | 67.6 µM (inactive) | > 100 µM (inactive) | 29.2 µM (inactive) | > 100 µM (inactive) | 8.75 µM (inactive) | 4.7 µM (inactive) | > 100 µM (inactive) | 3.78 µM (inactive) | 7.01 µM (inactive) | 24.6 µM (inactive) | > 100 µM (inactive)
4 | Cn1c(=O)c2[nH]c(N=O)nc2n(C)c1=O | > 100 µM (inactive) | > 100 µM (inactive) | > 100 µM (inactive) | > 100 µM (inactive) | > 100 µM (inactive) | > 100 µM (inactive) | > 100 µM (inactive) | > 100 µM (inactive) | > 100 µM (inactive) | > 100 µM (inactive) | > 100 µM (inactive) | > 100 µM (inactive) | – | > 100 µM (inactive) | > 100 µM (inactive) | > 100 µM (inactive) | > 100 µM (inactive) | – | > 100 µM (inactive) | > 100 µM (inactive)
5 | CN(C)c1c(Cl)c(=O)oc2c1ccc1nc(-c3ccccc3)sc12 | > 100 µM (inactive) | > 100 µM (inactive) | > 100 µM (inactive) | > 100 µM (inactive) | > 100 µM (inactive) | 98.9 µM (inactive) | 57.7 µM (inactive) | > 100 µM (inactive) | > 100 µM (inactive) | > 100 µM (inactive) | > 100 µM (inactive) | > 100 µM (inactive) | > 100 µM (inactive) | > 100 µM (inactive) | – | > 100 µM (inactive) | > 100 µM (inactive) | > 100 µM (inactive) | > 100 µM (inactive) | > 100 µM (inactive)
6 | Oc1ccc(Cl)cc1-c1cc(-c2ccccc2)nc(NCN2CCCCC2)n1 | > 100 µM (inactive) | > 100 µM (inactive) | 8.81 µM (inactive) | > 100 µM (inactive) | > 100 µM (inactive) | > 100 µM (inactive) | 2.78 µM (inactive) | > 100 µM (inactive) | 7.14 µM (inactive) | > 100 µM (inactive) | > 100 µM (inactive) | > 100 µM (inactive) | > 100 µM (inactive) | > 100 µM (inactive) | > 100 µM (inactive) | > 100 µM (inactive) | > 100 µM (inactive) | – | > 100 µM (inactive) | > 100 µM (inactive)
7 | COc1cc(C2SCC(=O)N2c2cccc(Cl)c2)cc(OC)c1OC (stereo unspecified) | > 100 µM (inactive) | 26.4 µM (inactive) | 55.7 µM (inactive) | 21.2 µM (inactive) | > 100 µM (inactive) | – | 46.8 µM (inactive) | 56.9 µM (inactive) | > 100 µM (inactive) | 51.6 µM (inactive) | > 100 µM (inactive) | > 100 µM (inactive) | 11.4 µM (inactive) | 54.6 µM (inactive) | – | > 100 µM (inactive) | 45.7 µM (inactive) | 27.7 µM (inactive) | 70.1 µM (inactive) | 76.9 µM (inactive)
8 | CN1C(=O)c2ccc3ccccc3c2C1=O | > 100 µM (inactive) | > 100 µM (inactive) | > 100 µM (inactive) | 86.1 µM (inactive) | 47.3 µM (inactive) | > 100 µM (inactive) | > 100 µM (inactive) | > 100 µM (inactive) | > 100 µM (inactive) | > 100 µM (inactive) | > 100 µM (inactive) | > 100 µM (inactive) | > 100 µM (inactive) | > 100 µM (inactive) | 27.9 µM (inactive) | > 100 µM (inactive) | > 100 µM (inactive) | > 100 µM (inactive) | – | 14 µM (inactive)
9 | CC(=O)OC1COC(n2nc(N)nc2C)C(OC(C)=O)C1OC(C)=O (stereo unspecified) | > 100 µM (inactive) | > 100 µM (inactive) | > 100 µM (inactive) | > 100 µM (inactive) | > 100 µM (inactive) | > 100 µM (inactive) | > 100 µM (inactive) | > 100 µM (inactive) | > 100 µM (inactive) | > 100 µM (inactive) | > 100 µM (inactive) | > 100 µM (inactive) | > 100 µM (inactive) | > 100 µM (inactive) | > 100 µM (inactive) | > 100 µM (inactive) | > 100 µM (inactive) | > 100 µM (inactive) | > 100 µM (inactive) | > 100 µM (inactive)
10 | Cn1c(N)cc(=O)nc1N | > 100 µM (inactive) | > 100 µM (inactive) | > 100 µM (inactive) | > 100 µM (inactive) | > 100 µM (inactive) | > 100 µM (inactive) | > 100 µM (inactive) | > 100 µM (inactive) | > 100 µM (inactive) | > 100 µM (inactive) | – | > 100 µM (inactive) | > 100 µM (inactive) | > 100 µM (inactive) | > 100 µM (inactive) | > 100 µM (inactive) | > 100 µM (inactive) | > 100 µM (inactive) | > 100 µM (inactive) | > 100 µM (inactive)
11 | COc1ccc2c(c1)/C(=C(\C(Cl)=C(Cl)Cl)[N+](=O)[O-])N2 | > 100 µM (inactive) | 49.7 µM (inactive) | 90.6 µM (inactive) | 25.3 µM (inactive) | 92.7 µM (inactive) | > 100 µM (inactive) | > 100 µM (inactive) | > 100 µM (inactive) | 70.3 µM (inactive) | 69.8 µM (inactive) | > 100 µM (inactive) | > 100 µM (inactive) | > 100 µM (inactive) | 49.1 µM (inactive) | 35.7 µM (inactive) | 72.1 µM (inactive) | – | 31.1 µM (inactive) | 76.4 µM (inactive) | 26.7 µM (inactive)
12 | CN(C)CC[N+](C)(C)[BH2-]C(O)O | > 100 µM (inactive) | > 100 µM (inactive) | > 100 µM (inactive) | > 100 µM (inactive) | > 100 µM (inactive) | > 100 µM (inactive) | > 100 µM (inactive) | > 100 µM (inactive) | > 100 µM (inactive) | > 100 µM (inactive) | > 100 µM (inactive) | > 100 µM (inactive) | > 100 µM (inactive) | > 100 µM (inactive) | > 100 µM (inactive) | > 100 µM (inactive) | – | > 100 µM (inactive) | > 100 µM (inactive) | > 100 µM (inactive)
13 | C=C(C)[C@@H]1CC[C@]2(C(=O)O)CC[C@]3(C)[C@H](CC[C@@H]4[C@@]5(C)CC(=O)C(C)(C)[C@@H]5CC[C@]43C)[C@@H]12 | 4.68 µM (inactive) | 10.3 µM (inactive) | 12.2 µM (inactive) | 5.78 µM (inactive) | 5.6 µM (inactive) | 9.46 µM (inactive) | 6.64 µM (inactive) | 4.46 µM (inactive) | 14.8 µM (inactive) | 7 µM (inactive) | 7.55 µM (inactive) | 5.9 µM (inactive) | 11.7 µM (inactive) | 15 µM (inactive) | 10.6 µM (inactive) | 7.24 µM (inactive) | 4.48 µM (inactive) | 0.574 µM (active) | 8.36 µM (inactive) | 9.35 µM (inactive)
14 | COc1cc2oc(-c3ccc(O)cc3O)c(CC=C(C)C)c(=O)c2c(O)c1/C=C/C(C)C [ARTOCARPIN] | 4.02 µM (inactive) | 5.45 µM (inactive) | – | 3.24 µM (inactive) | 2.21 µM (inactive) | 2.42 µM (inactive) | 2.88 µM (inactive) | 1.81 µM (inactive) | 2.25 µM (inactive) | 2.14 µM (inactive) | 6.31 µM (inactive) | 2.46 µM (inactive) | 2.72 µM (inactive) | 2.61 µM (inactive) | 3.04 µM (inactive) | 2.79 µM (inactive) | 2.62 µM (inactive) | 2.36 µM (inactive) | 1.8 µM (inactive) | 4.2 µM (inactive)
